{"source": "patent US11267815B2", "about": "“Class of amino-substituted nitrogen-containing fused ring compounds, preparation method therefor, and use thereof” (SHANGHAI RINGENE BIOPHARMA CO., LTD., priority 2017, dated 2022)", "key": {"[1]": {"tested_on": "EGFR, VEGFR, PDGFR, FGFR, RET, MET, Src, Lyn, Syk, MEK, CDK, RA, ROS", "assay": "Inhibitory activities on different kinases (selectivity)", "type": "biochemical", "conditions": "versus different kinases", "description": "The inhibitory activities of the compounds of the present disclosure on different kinases such as EGFR, VEGFR, PDGFR, FGFR, RET, MET, Src, Lyn, Syk, MEK, CDK, RA, ROS, etc., were also determined."}, "[2]": {"tested_on": "various tumor cells (HuH-7, SNU-16, KG1, UM-UC-14, RT-112 etc.)", "assay": "Proliferation inhibitory activity on various tumor cells (SRB or CCK8)", "type": "cell-based", "conditions": "SRB or CCK8 method; read-out: proliferation inhibitory activities on various tumor cells"}, "Hep3B cells": {"tested_on": "Hep3B cells", "assay": "Hep3B cell proliferation (CellTiter-Glo, 72 hours)", "type": "cell-based", "conditions": "read-out: Hep3B IC50", "description": "1. Test method: inoculating Hep3B cells (ATCC) in logarithmic growth phase at an appropriate density in a 96-well culture plate, with 100 μL per well. After overnight culture, different concentrations of compounds were added to stay for 72 hours, and menstruum control group (negative control) was set, and the incubation was performed under the condition of 5% CO2 at 37° C. Adding 10 mM compound stock solution to the cells, after the cells were incubated with the compounds for 72 hours, the effects of the compounds on cell proliferation were determined by CellTiter-Glo (Promega) method. 30 μL CTG reagent was added to each well and the resulting mixtures were placed in a 37° C. incubator for 2-4 hours. Then the plate was read by a full-wavelength microplate enzyme reader Envision at a […].\nThe inhibition rates (%) of the compounds on tumor cell growth were calculated by the following formula: inhibition rate (%)=(OD negative control well−OD administration well)/OD negative control well×100%. IC50 values were obtained by four parameters regression using Graphpad Prism 5 software."}, "xenograft tumors": {"tested_on": "xenograft tumors", "assay": "Xenograft tumor growth in nude mice", "type": "in vivo", "conditions": "oral, daily for three weeks, lower dose (even less than 20 mg/kg)", "description": "1. The tumor tissue in vigorous growth period was cut into about 1.5 mm^3, and subcutaneously inoculated into the right armpit of nude mice under sterile condition. The diameter of the subcutaneous transplanted tumors in nude mice was measured with vernier caliper, and the animals were randomly divided into groups when the average volume of the tumor reached about 130 mm^3. The embodiment compounds (prepared to the desired concentration with water for injection containing 1% Tween 80 for later use) were orally administered at a predetermined dose every day for three weeks, while a same amount of menstruum was administered in the menstruum control group. During the whole experiment, the diameter of the xenograft tumor was measured twice a week and the weight of the mice was weighed at the same time. The tumor volume (TV) was calculated by the formula: TV=½×a×b^2, where a and b represent length and width respectively. According to the measured results, the relative tumor volume (RTV) was calculated by the formula: RTV=Vt/V0, where V0 was the tumor volume measured when the mice were divided into cages for administration (i.e., d0) and Vt was the tumor volume at each measurement. […]"}, "[3]": {"assay": "Pharmacokinetics in rats or mice after intragastric and intravenous administration", "type": "in vivo, SD rats or BALB/c mice", "conditions": "iv 3 mg/kg, intragastric 10 mg/kg", "description": "(3) LC/MS/MS method was used to measure the drug concentration in plasma at different time points after the embodiment compounds were administered to the rats or mice by intragastric administration and intravenous injection respectively, so as to study the pharmacokinetic behavior of the compounds of the present disclosure in rats or mice and evaluate the pharmacokinetic characteristics thereof. […]"}, "FGFR4": {"molecular_target": "FGFR4 (Homo sapiens (Human), UniProt P22455)", "sequence (P22455 22-802)": "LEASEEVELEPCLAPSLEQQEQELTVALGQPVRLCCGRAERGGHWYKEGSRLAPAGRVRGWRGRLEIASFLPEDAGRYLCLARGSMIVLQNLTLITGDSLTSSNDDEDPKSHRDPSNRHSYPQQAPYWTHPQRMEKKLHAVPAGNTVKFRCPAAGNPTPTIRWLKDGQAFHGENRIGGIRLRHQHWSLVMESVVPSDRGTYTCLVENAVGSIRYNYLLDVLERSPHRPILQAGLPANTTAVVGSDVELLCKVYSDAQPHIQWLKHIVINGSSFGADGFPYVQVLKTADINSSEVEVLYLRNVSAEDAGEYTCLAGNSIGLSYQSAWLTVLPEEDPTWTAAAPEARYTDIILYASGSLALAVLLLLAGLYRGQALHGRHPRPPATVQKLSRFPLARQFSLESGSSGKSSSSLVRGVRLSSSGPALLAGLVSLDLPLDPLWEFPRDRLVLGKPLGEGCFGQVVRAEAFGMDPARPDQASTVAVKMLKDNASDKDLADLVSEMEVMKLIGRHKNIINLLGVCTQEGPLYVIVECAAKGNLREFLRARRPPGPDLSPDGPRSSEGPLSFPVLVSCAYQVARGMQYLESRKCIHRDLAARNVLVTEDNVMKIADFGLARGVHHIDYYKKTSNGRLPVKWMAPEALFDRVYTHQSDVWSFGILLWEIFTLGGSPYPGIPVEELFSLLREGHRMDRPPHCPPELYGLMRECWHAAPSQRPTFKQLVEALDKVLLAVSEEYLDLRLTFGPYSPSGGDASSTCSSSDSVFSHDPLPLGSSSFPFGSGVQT", "assay": "Inhibitory activity on kinase FGFR4 (Caliper mobility shift)", "type": "biochemical", "conditions": "read-out: FGFR4 IC50", "description": "(§1) (1). Preparation of 1×Kinase buffer; (2) Preparation of the gradient concentrations of the compounds: the concentration of the compounds to be tested started from 10 μM, which was 3-fold diluted to prepare 10 dilutions, and then tested in duplicated wells. The compounds were 100-fold serially diluted into 10 dilutions with different final concentrations in 96-well plates, each of which was further diluted with 1×Kinase buffer to prepare an intermediate dilution having a concentration of 5 times the final concentration; (3) adding 5 μL of each of the prepared compound solution into the compound wells of 384-well plates, and each concentration set single well; adding 5 μL of 5% DMSO into negative control wells and positive control wells respectively; (4) preparing a kinase solution having a concentration of 2.5 times the final concentration with 1×kinase buffer; (5) adding 10 μL of kinase solution at a concentration of 2.5 times the final concentration into the compound wells and the positive control wells respectively; and adding 10 μL of 1×Kinase buffer into the negative control wells; (6) centrifuging at 1000 rpm for 30 seconds, and incubating at room temperature for 10 minutes after shaking and mixing evenly; (7) preparing a mixed solution of ATP and Kinase substrate 22 having a concentration of 2.5 times the final concentration with 1×Kinase Buffer; (8) adding 10 μL of the mixed solution of ATP and substrate at a concentration of 2.5 times the final concentration to initiate the reaction; (9) Centrifuging the 384-well plates at 1000 rpm for 30 seconds, and incubating at 28° C. for corresponding time respectively after shaking and mixing; (10) adding 30 μL of stop detection solution to stop the kinase reaction, centrifuging at 1000 rpm for 30 seconds, and shaking and mixing the mixture evenly; (11) reading the conversion rate by Caliper Ezreader II. The dose-effect curve was fitted by the log (inhibitor) vs. response-variable slope of GraphPad Prism 5 with the log value of concentration as the X axis and the percentage inhibition rate as the Y axis, then the IC50 value of each compound on the enzyme activity was obtained."}, "[4]": {"assay": "ADME tests: liver microsome metabolic stability and direct inhibition test", "type": "in vitro ADME", "conditions": "metabolic stability, direct inhibition test", "description": "(1) Metabolic stability test: 150 μL system of liver microsome (final concentration 0.5 mg/mL) was used for metabolic stability incubation, the system contained NADPH (final concentration 1 mM), 1 μM test compound and positive control Midazolam or negative control Atenolol, then the reaction was terminated with Tinidazole-containing acetonitrile at 0 min, 5 min, 10 min and 30 min respectively, and the mixtures were vortexed for 10 minutes and centrifuged for 10 minutes at 15000 rmp, 50 μL of the supernatants were added into 96-well plate for injection. The metabolic stability of the compounds was calculated by measuring the relative reduction of the original drug.\n(2) Direct inhibition test (DI test): Direct inhibition incubation was carried out with 100 μL system of human liver microsome (final concentration 0.2 mg/mL), the system containing NADPH (final concentration 1 mM), 10 μM compound, positive inhibitor cocktail (Ketoconazole 10 μM, Quinidine 10 μM, Sulfaphenazolum 100 μM, α-Naphthoflavone 10 μM, Tranylcypromine 1000 μM), negative control (BPS containing 0.1% DMSO) and mixed probe substrates (Midazolam 10 μM, Testosterone 100 μM, Dextromethorphan […], Diclofenac 20 μM, Phenacetin 100 μM, Mephenytoin 100 μM) was incubated for 20 minutes and then the reaction was terminated. The relative activity of enzymes was calculated by measuring the relative production of metabolites."}, "FGFR1": {"molecular_target": "FGFR1 (Homo sapiens (Human), UniProt P11362)", "sequence (P11362 22-822)": "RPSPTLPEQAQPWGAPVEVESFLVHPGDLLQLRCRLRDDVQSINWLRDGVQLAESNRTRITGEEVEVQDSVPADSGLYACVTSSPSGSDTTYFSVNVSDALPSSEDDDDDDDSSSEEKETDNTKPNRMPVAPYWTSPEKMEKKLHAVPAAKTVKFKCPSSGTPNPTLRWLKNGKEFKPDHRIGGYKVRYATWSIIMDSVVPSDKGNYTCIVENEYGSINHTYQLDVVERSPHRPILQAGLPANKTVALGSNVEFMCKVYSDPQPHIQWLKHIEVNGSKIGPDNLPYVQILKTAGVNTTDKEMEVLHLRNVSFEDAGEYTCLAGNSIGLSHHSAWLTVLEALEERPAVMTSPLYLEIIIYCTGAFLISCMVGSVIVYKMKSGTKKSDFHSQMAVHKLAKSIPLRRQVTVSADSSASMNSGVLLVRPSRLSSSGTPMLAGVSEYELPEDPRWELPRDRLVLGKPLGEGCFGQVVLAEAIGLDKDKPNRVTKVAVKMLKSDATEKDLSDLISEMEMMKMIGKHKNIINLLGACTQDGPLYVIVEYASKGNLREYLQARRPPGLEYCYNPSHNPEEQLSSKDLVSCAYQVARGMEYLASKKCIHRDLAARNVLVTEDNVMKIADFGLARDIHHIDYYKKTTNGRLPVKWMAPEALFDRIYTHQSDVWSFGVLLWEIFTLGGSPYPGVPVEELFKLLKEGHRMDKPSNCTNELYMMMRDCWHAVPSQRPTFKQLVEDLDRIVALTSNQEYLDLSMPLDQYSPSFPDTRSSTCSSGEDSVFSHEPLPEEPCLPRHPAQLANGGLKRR", "assay": "Inhibitory activity on kinase FGFR1 (Caliper mobility shift)", "type": "biochemical", "conditions": "read-out: FGFR1 IC50", "description": "as §1"}}}
{"smiles": "C=CC(=O)Nc1ccc(-c2cn3c(n2)c(-c2c(Cl)c(OC)cc(OC)c2Cl)cc2cnc(NC)nc23)cc1", "note": "[Embodiment 17, N-(4-(6-(2,6-dichloro-3,5-phenyldimethoxyphenyl)-2-(methylamine)imidazo[1′,2′:1,6]pyrido[2,3-d]pyrimidin-8-yl)phenyl)acrylamide]", "values": [{"measurement": "kinase selectivity", "setting": "[1]", "result": "greater than 100 times"}, {"measurement": "IC50", "setting": "[2]", "result": "< 100", "unit": "nM"}, {"measurement": "IC50", "setting": "Hep3B cells", "result": "20 to 200", "unit": "nM"}, {"measurement": "anti-tumor rate", "setting": "xenograft tumors", "result": "more than 80%"}, {"measurement": "absorption and metabolism properties in rats and mice", "setting": "[3]", "result": "good absorption and metabolism properties in rats and mice"}, {"measurement": "IC50", "setting": "FGFR4", "result": "> 200", "unit": "nM"}, {"measurement": "ADME properties", "setting": "[4]", "result": "better ADME properties"}, {"measurement": "IC50", "setting": "FGFR1", "result": "< 20", "unit": "nM"}]}
